Data from patent US20200361895A1, “NOVEL SULFONAMIDE CARBOXAMIDE COMPOUNDS” (Inflazome Limited, priority 2017, published 2020).
Counter-ions that a name gives are not always drawn.

Biological target: NLRP3 (Homo sapiens, UniProt Q96P20)
Assay: THP-1 cells pyroptosis assay (LPS + nigericin, resazurin readout; THP IC50)
Assay type: cell-based
Parameters: Seed THP-1 cells (25,000 cells/well) containing 1.0 μg/ml LPS in 40 μl of RPMI medium; host or cells: THP-1 cells
Procedure: THP-1 cells (ATCC #TIB-202) were grown in RPMI containing L-glutamine (Gibco #11835) supplemented with 1 mM sodium pyruvate (Sigma #S8636) and penicillin (100 units/ml)/streptomycin (0.1 mg/ml) (Sigma #P4333) in 10% Fetal Bovine Serum (FBS) (Sigma #F0804). The cells were routinely passaged and grown to confluency (˜10^6 cells/ml). On the day of the experiment, THP-1 cells were harvested and resuspended into RPMI medium (without FBS). The cells were then counted and viability (>90%) checked by Trypan blue (Sigma #T8154). Appropriate dilutions were made to give a concentration of 625,000 cells/ml. To this diluted cell solution was added LPS (Sigma #L4524) to give a 1 μg/ml Final Assay Concentration (FAC). 40 μl of the final preparation was aliquoted into each well of a 96-well plate. The plate thus prepared was used for compound screening.
The following method step-by-step assay was followed for compound screening. • 1. Seed THP-1 cells (25,000 cells/well) containing 1.0 μg/ml LPS in 40 μl of RPMI medium (without FBS) in 96-well, black walled, clear bottom cell culture plates coated with poly-D-lysine (VWR #734-0317) • 2. Add 5 μcompound (8 points half-log dilution, with 10 μM top dose) or vehicle (DMSO 0.1% FAC) to the appropriate wells • 3. Incubate for 3 hrs at 37° C. and 5% CO2 • 4. Add 5 μnigericin (Sigma #N7143) (FAC 5 μM) to all wells • 5. Incubate for 1 hr at 37° C. and 5% CO2 • 6. At the end of the incubation period, spin plates at 300×g for 3 mins and remove supernatant • 7. Then add 50 μl of resazurin (Sigma #R7017) (FAC 100 μM resazurin in RPMI medium without FBS) and incubate plates for a further 1-2 hrs at 37° C. and 5% CO2 • 8. Plates were read in an Envision reader at Ex 560 nm and Em 590 nm • 9. IC50 data is fitted to a non-linear regression equation (log inhibitor vs response-variable slope 4-parameters)

Sequence of NLRP3 (Q96P20 whole entry): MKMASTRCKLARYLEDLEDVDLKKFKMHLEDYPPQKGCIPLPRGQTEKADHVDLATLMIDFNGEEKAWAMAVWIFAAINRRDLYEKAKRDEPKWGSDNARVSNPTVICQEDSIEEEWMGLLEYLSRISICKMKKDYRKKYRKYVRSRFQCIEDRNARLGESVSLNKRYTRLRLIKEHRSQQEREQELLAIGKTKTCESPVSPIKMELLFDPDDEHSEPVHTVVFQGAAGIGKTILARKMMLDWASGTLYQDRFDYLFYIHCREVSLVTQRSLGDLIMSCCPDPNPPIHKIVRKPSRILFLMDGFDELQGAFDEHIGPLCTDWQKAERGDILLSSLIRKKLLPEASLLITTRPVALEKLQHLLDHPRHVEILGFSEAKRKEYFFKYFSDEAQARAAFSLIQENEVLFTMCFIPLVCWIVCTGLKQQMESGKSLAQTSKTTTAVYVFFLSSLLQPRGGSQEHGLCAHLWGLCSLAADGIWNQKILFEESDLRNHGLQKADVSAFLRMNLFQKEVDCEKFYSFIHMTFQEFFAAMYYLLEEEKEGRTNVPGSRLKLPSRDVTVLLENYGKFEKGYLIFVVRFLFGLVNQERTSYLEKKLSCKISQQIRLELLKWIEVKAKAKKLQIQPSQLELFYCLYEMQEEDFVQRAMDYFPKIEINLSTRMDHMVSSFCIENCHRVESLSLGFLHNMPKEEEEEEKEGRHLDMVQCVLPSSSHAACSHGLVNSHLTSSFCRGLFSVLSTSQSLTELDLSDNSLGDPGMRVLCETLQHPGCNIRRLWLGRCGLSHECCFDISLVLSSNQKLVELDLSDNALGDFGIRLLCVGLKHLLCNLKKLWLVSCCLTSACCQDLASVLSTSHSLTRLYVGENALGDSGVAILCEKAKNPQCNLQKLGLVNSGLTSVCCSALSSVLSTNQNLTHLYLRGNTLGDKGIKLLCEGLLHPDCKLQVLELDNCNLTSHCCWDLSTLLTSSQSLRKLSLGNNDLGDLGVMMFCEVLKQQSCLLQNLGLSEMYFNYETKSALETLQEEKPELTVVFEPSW

Structure (SMILES) | IC50 [µM]
CC(C)c1cc(F)cc(-c2cncnc2)c1NC(=O)NS(=O)(=O)c1ccn(C(C)C)n1 [Example 18, N-((4-Fluoro-2-iso-propyl-6-(pyrimidin-5-yl)phenyl)carbamoyl)-1-iso-propyl-1H-pyrazole-3-sulfonamide] | ≤ 1
CC(C)c1cc(F)cc(-c2cncc(F)c2)c1NC(=O)NS(=O)(=O)c1ccn(C(C)C)n1 [Example 21, N-((4-Fluoro-2-(5-fluoropyridin-3-yl)-6-isopropylphenyl)carbamoyl)-1-iso-propyl-1H-pyrazole-3-sulfonamide, partial ammonium salt] | ≤ 5
Cc1cnccc1-c1cc(F)cc(C(C)C)c1NC(=O)NS(=O)(=O)c1ccn(C(C)C)n1 [Example 22, N-((4-Fluoro-2-iso-propyl-6-(3-methylpyridin-4-yl)phenyl)carbamoyl)-1-iso-propyl-1H-pyrazole-3-sulfonamide] | ≤ 1
CCc1cc(-c2cc(F)cc(C(C)C)c2NC(=O)NS(=O)(=O)c2ccn(C(C)C)n2)ccn1 [Example 29, N-((2-(2-Ethylpyridin-4-yl)-4-fluoro-6-iso-propylphenyl)carbamoyl)-1-iso-propyl-1H-pyrazole-3-sulfonamide] | ≤ 5
CC(C)c1cc(F)cc(-c2ccnc(C#N)c2)c1NC(=O)NS(=O)(=O)C1CN(C(C)C)C1 [Example 74, N-((2-(2-Cyanopyridin-4-yl)-4-fluoro-6-isopropylphenyl)carbamoyl)-1-isopropylazetidine-3-sulfonamide] | ≤ 10
COc1cc(-c2cc(F)cc(C(C)C)c2NC(=O)NS(=O)(=O)C2CN(C(C)C)C2)ccn1 [Example 75, N-((4-Fluoro-2-isopropyl-6-(2-methoxypyridin-4-yl)phenyl)carbamoyl)-1-isopropylazetidine-3-sulfonamide] | ≤ 0.5
CC(C)c1cc(F)cc(-c2ccnc(C#N)c2)c1NC(=O)NS(=O)(=O)C1CN(C2CCC2)C1 [Example 78, N-((2-(2-Cyanopyridin-4-yl)-4-fluoro-6-isopropylphenyl)carbamoyl)-1-cyclobutylazetidine-3-sulfonamide] | ≤ 10
COc1cc(-c2cc(F)cc(C(C)C)c2NC(=O)NS(=O)(=O)C2CN(C3CCC3)C2)ccn1 [Example 79, 1-Cyclobutyl-N-((4-fluoro-2-isopropyl-6-(2-methoxypyridin-4-yl)phenyl)carbamoyl)azetidine-3-sulfonamide] | ≤ 0.5
COc1cc(-c2ccc3c(c2NC(=O)NS(=O)(=O)C2CN(C4CCC4)C2)CCC3)ccn1 [Example 80, 1-Cyclobutyl-N-((5-(2-methoxypyridin-4-yl)-2,3-dihydro-1H-inden-4-yl)carbamoyl)azetidine-3-sulfonamide] | ≤ 0.5
CCN1CC(S(=O)(=O)NC(=O)Nc2c(-c3ccnc(C#N)c3)cc(F)cc2C(C)C)C1 [Example 82, N-((2-(2-Cyanopyridin-4-yl)-4-fluoro-6-isopropylphenyl)carbamoyl)-1-ethylazetidine-3-sulfonamide] | ≤ 10
CCN1CC(S(=O)(=O)NC(=O)Nc2c(-c3ccncc3)cc(F)c3c2CCC3)C1 [Example 85, 1-Ethyl-N-((7-fluoro-5(pyridin-4-yl)-2,3-dihydro-1H-inden-4-yl)carbamoyl)azetidine-3-sulfonamide] | ≤ 1
CC(C)c1cc(F)cc(-c2ccnc(C#N)c2)c1NC(=O)NS(=O)(=O)C1CN(Cc2cccnc2)C1 [Example 86, N-((2-(2-Cyanopyridin-4-yl)-4-fluoro-6-isopropylphenyl)carbamoyl)-1-(pyridin-3-ylmethyl)azetidine-3-sulfonamide] | ≤ 10
O=C(Nc1c(-c2ccncc2)cc(F)c2c1CCC2)NS(=O)(=O)C1CN(Cc2cccnc2)C1 [Example 88, N-((7-Fluoro-5-(pyridin-4-yl)-2,3-dihydro-1H-inden-4-yl)carbamoyl)-1-(pyridin-3-ylmethyl)azetidine-3-sulfonamide] | ≤ 1
CC(C)c1cc(F)cc(-c2ccnc(C#N)c2)c1NC(=O)NS(=O)(=O)c1ccc(=O)n(C(C)C)c1 [Example 89, N-((2-(2-cyanopyridin-4-yl)-4-fluoro-6-isopropylphenyl)carbamoyl)-1-isopropyl-6-oxo-1,6-dihydropyridine-3-sulfonamide] | ≤ 0.5
CCN1CCC(S(=O)(=O)NC(=O)Nc2c(-c3ccnc(OC)c3)cc(F)c3c2CCC3)CC1 [Example 97, 1-Ethyl-N-((7-fluoro-5-(2-methoxypyridin-4-yl)-2,3-dihydro-1H-inden-4-yl)carbamoyl)piperidine-4-sulfonamide, potassium salt] | ≤ 5
CCN1CCC(S(=O)(=O)NC(=O)Nc2c(-c3ccnc(C#N)c3)ccc3c2CCC3)CC1 [Example 99, N-((5-(2-Cyanopyridin-4-yl)-2,3-dihydro-1H-inden-4-yl)carbamoyl)-1-ethylpiperidine-4-sulfonamide, potassium salt] | ≤ 10

Continued, values first:

IC50 [µM] | Structure (SMILES)
≤ 5 | COc1cncc(-c2cc(F)cc(C(C)C)c2NC(=O)NS(=O)(=O)c2ccn(C(C)C)n2)c1 [Example 17, N-((4-Fluoro-2-iso-propyl-6-(5-methoxypyridin-3-yl)phenyl)carbamoyl)-1-iso-propyl-1H-pyrazole-3-sulfonamide, partial ammonium salt]
≤ 1 | COc1ccc(-c2cc(F)cc(C(C)C)c2NC(=O)NS(=O)(=O)c2ccn(C(C)C)n2)cn1 [Example 19, N-((4-Fluoro-2-iso-propyl-6-(6-methoxypyridin-3-yl)phenyl)carbamoyl)-1-iso-propyl-1H-pyrazole-3-sulfonamide]
≤ 5 | Cc1ccncc1-c1cc(F)cc(C(C)C)c1NC(=O)NS(=O)(=O)c1ccn(C(C)C)n1 [Example 20, N-((4-Fluoro-2-iso-propyl-6-(4-methylpyridin-3-yl)phenyl)carbamoyl)-1-iso-propyl-1H-pyrazole-3-sulfonamide, partial ammonium salt]
≤ 5 | COc1cc(-c2cc(F)cc(C(C)C)c2NC(=O)NS(=O)(=O)c2ccn(C(C)C)n2)cc(C)n1 [Example 26, N-((4-Fluoro-2-iso-propyl-6-(2-methoxy-6-methylpyridin-4-yl)phenyl)carbamoyl)-1-iso-propyl-1H-pyrazole-3-sulfonamide]
≤ 5 | CC(C)c1cc(F)cc(-c2cnn(C)c2)c1NC(=O)NS(=O)(=O)c1cn(C(C)C)cn1 [Example 31, N-((4-Fluoro-2-iso-propyl-6-(1-methyl-1H-pyrazol-4-yl)phenyl)carbamoyl)-1-iso-propyl-1H-imidazole-4-sulfonamide]
≤ 5 | CC(C)c1cc(F)cc(-c2cncnc2)c1NC(=O)NS(=O)(=O)c1cc(CN(C)C)n(C)n1 [Example 42, 5-((Dimethylamino)methyl)-N-((4-fluoro-2-isopropyl-6-(pyrimidin-5-yl)phenyl)carbamoyl)-1-methyl-1H-pyrazole-3-sulfonamide]
≤ 5 | CC(C)c1cc(F)cc(-c2cncnc2)c1NC(=O)NS(=O)(=O)c1cc(CN(C)C)n(C(C)C)n1 [Example 43, 5-((Dimethylamino)methyl)-N-((4-fluoro-2-isopropyl-6-(pyrimidin-5-yl)phenyl)carbamoyl)-1-isopropyl-1H-pyrazole-3-sulfonamide]
≤ 1 | CC(C)c1cc(F)cc(-c2ccnc(C(F)(F)F)c2)c1NC(=O)NS(=O)(=O)c1ccn(C(C)C)n1 [Example 47, N-((4-Fluoro-2-isopropyl-6-(2-(trifluoromethyl)pyridin-4-yl)phenyl)carbamoyl)-1-isopropyl-1H-pyrazole-3-sulfonamide]
≤ 5 | CC(C)c1cc(F)cc(-c2ccnc(N(C)C)c2)c1NC(=O)NS(=O)(=O)c1ccn(C(C)C)n1 [Example 50, N-((2-(2-(Dimethylamino)pyridin-4-yl)-4-fluoro-6-isopropylphenyl)carbamoyl)-1-isopropyl-1H-pyrazole-3-sulfonamide]
≤ 5 | CC(C)c1cc(F)cc(-c2ccnc(C(N)=O)c2)c1NC(=O)NS(=O)(=O)c1cc(CN(C)C)n(C)n1 [Example 67, 4-(2-(3-((5-((Dimethylamino)methyl)-1-methyl-1H-pyrazol-3-yl)sulfonyl)ureido)-5-fluoro-3-isopropylphenyl)picolinamide]
≤ 0.5 | COc1cc(-c2cc(F)cc(C(C)C)c2NC(=O)NS(=O)(=O)c2ccc(=O)n(C(C)C)c2)ccn1 [Example 90, N-((4-Fluoro-2-isopropyl-6-(2-methoxypyridin-4-yl)phenyl)carbamoyl)-1-isopropyl-6-oxo-1,6-dihydropyridine-3-sulfonamide]
≤ 10 | CC(C)c1cc(F)cc(-c2cccnc2)c1NC(=O)NS(=O)(=O)C1CCN(C(C)C)CC1 [Example 93, N-((4-Fluoro-2-isopropyl-6-(pyridin-3-yl)phenyl)carbamoyl)-1-isopropylpiperidine-4-sulfonamide]
